Test results as given in patent US4552895A, “Furo[3,2-b]furan-2-(3H)-ones” (Eli Lilly and Company, priority 1983, dated 1985).

Columns and labels:
[1] = tested on: Collagen-Induced Arthritis; assay: Collagen-induced arthritis assay (type II collagen, hindpaw volume) in rats; assay type: in vivo, inbred Lewis male rats; conditions: oral gavage 5 days per week from day 1 to day 28 or 30
Experimental: This test method is a collagen arthritis assay carried out as follows.
Type II collagen is isolated from bovine articular cartilage by the method of Strawich and Nimni [Biochemistry, 10, 3905 (1971)]. The collagen is dissolved in 0.1M acetic acid and stored at -20° C. Type II collagen solution is diluted to 2 mg./ml. concentration and emulsified thoroughly with an equal volume of incomplete Freund's adjuvant (ICFA). The emulsion containing approximately 0.5 mg. of collagen is injected intradermally on day 0 to groups of 6 inbred Lewis male rats (Charles River Breeders; 170-200 g.) at various sites in the dorsal area. The hindpaw volumes of each rat are measured and recorded three times a week throughout the test period to assess the inflammatory reaction. The test group animals receive compounds under test as suspensions in carboxymethylcellulose vehicle, by oral gavage, 5 days per week (Monday-Friday), beginning on day 1. Control animals receive vehicle without a test compound. At the end of the test (day 28 or 30), the blood of these animals is drawn by cardiac puncture and the serum anti-type II collagen antibody levels are estimated by passive hemagglutination technique, using glutaraldehyde treated sheep red cells, to which type II collagen is conjugated [Avrameas et al., Immunochemistry, 6, 67 (1969); Andriopoulos et al., Arth. Rheum., 19, 613 (1976)]. The cellular response or delayed-type hypersensitivity response to type II collagen is measured by the radiometric ear index assay [Kostiala, Immunology, 33, 561 (1977)]. In certain experiments, the bone damage occurring because of immunization with type II collagen and the effects of drugs are determined from the radiographs of the hindpaws of two or three representative animals from each group. Injections of ICFA without collagen II were employed to some rats as a negative control; these rats received only […] vehicle during the test.
The % inhibition is calculated according to the following formula: [formula] where Vt is the hindpaw volume of a compound-treated animal (test group), Vc is the hindpaw volume of a non-compound-treated animal ([…] vehicle only-the control group), the Vv is the hindpaw volume of a vehicle ([…]) treated animal which received ICFA with no collagen II (negative control group).

angiogenesis factor = assay: Tumor angiogenesis inhibition in vivo: serpentine vessels induced by lysosomal-mitochondrial preparation from 3683 Morris hepatoma in mice; set-up: species or system mice (SPF/ND4 female); conditions: Mus musculus, ip, mice sacrificed after 24 hours, average number of serpentine vessels vs control
Experimental: Lysosomal-mitochondrial pellets containing angiogenesis factor are prepared from 3683 Morris hepatoma. The pellet is diluted with 7-8 ml. of 15% ficoll. At this dilution, 8-10 serpentine vessels are usually produced per 0.2 cc. injection as described below for the control group.
Next, 15 SPF/ND4 female mice weighing 20-22 g. are shaved on the left side and then divided into three groupss of five each. One group (drug group) is injected subcutaneously and laterally with 0.2 cc. of the lysosomal-mitochondrial preparation diluted with 15% ficoll. This group of mice is then dosed individually by the intraperitoneal route with 0.5 cc. of a solution or suspension in a standard vehicle containing the compound under test, usually at an initial dose level of 300 mg./kg. If this dose level is toxic, two-fold dilutions are made until all mice survive a single dose. The second group of mice (control group) is injected subcutaneously and laterally with 0.2 cc. of the lysosomal-mitochondrial suspension diluted with ficoll and dosed intraperitoneally with 0.5 cc. of the vehicle alone. The third group of mice (negative control) is injected with the ficoll solution only (without the lysosomal-mitochondrial pellet) without treatment with compound or vehicle. The mice are sacrificed after 24 hours. Each mouse is placed on its side on a dissecting board with the shaved side up. Starting at the flank, the skin is cut straight to the back of the animal. A similar cut is made behind the front leg. The skin is then cut along the back making a flap of about one inch by two inches. The skin is carefully separated from the connective tissue by using forceps and a scalpel. The skin flap is then laid back exposing the lysosomal-mitochondrial implant which is attached to the skin. The skin flap is gently flattened out and with the use of a binocular dissecting scope, serpentine vessels are observed around the lysosomal-mitochondrial implant and their number counted. All observations of the number of serpentine vessels are made at the same power of the microscope (1×). The average number of serpentine vessels for each group is calculated. The percent inhibition is then calculated according to the following equation. [formula] where sv=averge number of serpentine vessels.
If the negative control group described above has any serpentine vessels, the test is invalid due to contamination of the ficoll solution.

| SMILES | Inhibition of Collagen-Induced Arthritis, % inhibition ([1]; 25 mg./kg.) | inhibition in vivo at 25 mg/kg (angiogenesis factor) | Inhibition of Collagen-Induced Arthritis, % inhibition ([1]; 15 mg./kg.) |
| --- | --- | --- | --- |
| O=C1OC2C(O)COC2(O)C1(O)Cc1ccc(F)cc1 (stereo not drawn) [Example 1, [3R-(3aα,6α,6aα)]-tetrahydro-3,3a,6-trihydroxy-3-[(4-fluorophenyl)methyl]furo[3,2-b]furan-2(3H)-one] | 94% | 62% |  |
| O=C1OC2C(O)COC2(O)C1(O)Cc1cccc(Br)c1 (stereo not drawn) [Example 2] |  | 45% |  |
| O=C1OC2C(O)COC2(O)C1(O)Cc1cccc(Cl)c1 (stereo not drawn) [Example 3] |  | 55% | 100% |
| O=C1OC2C(O)COC2(O)C1(O)Cc1ccccc1Cl (stereo not drawn) [Example 4] |  | 38% |  |
| O=C1OC2C(O)COC2(O)C1(O)Cc1ccc(Cl)cc1 (stereo not drawn) [Example 5] |  | 52% | 81% |
| O=C1OC2C(O)COC2(O)C1(O)Cc1ccccc1F (stereo not drawn) [Example 6] |  | 33% |  |
| O=C1OC2C(O)COC2(O)C1(O)Cc1cccc(F)c1 (stereo not drawn) [Example 7] | 100% | 57% |  |
| O=C1OC2C(O)COC2(O)C1(O)Cc1ccc(C(F)(F)F)cc1 (stereo not drawn) [Example 8] |  | 55% |  |
| Cc1cccc(CC2(O)C(=O)OC3C(O)COC32O)c1 (stereo not drawn) [Example 9] |  | 48% |  |
| Cc1ccccc1CC1(O)C(=O)OC2C(O)COC21O (stereo not drawn) [Example 10] |  | 48% |  |
| Cc1ccc(CC2(O)C(=O)OC3C(O)COC32O)cc1 (stereo not drawn) [Example 11] |  | 62% | 94% |
| Cc1ccc(C)c(CC2(O)C(=O)OC3C(O)COC32O)c1 (stereo not drawn) [Example 12] | 23% | 58% |  |
